Numbering of substitutions follows the chain as printed.
Legend:
Assay in all cases: biotin-switch assay, anti-GST western blot
Type in all cases: binding
RNF41 [1] = biological target: T1, RNF41 (Homo sapiens, UniProt Q9H4P4, C134S); settings: covalent (S-nitrosylation of cysteine); 100 μM GSNO
T1 sequence (Q9H4P4 1-317 C134S): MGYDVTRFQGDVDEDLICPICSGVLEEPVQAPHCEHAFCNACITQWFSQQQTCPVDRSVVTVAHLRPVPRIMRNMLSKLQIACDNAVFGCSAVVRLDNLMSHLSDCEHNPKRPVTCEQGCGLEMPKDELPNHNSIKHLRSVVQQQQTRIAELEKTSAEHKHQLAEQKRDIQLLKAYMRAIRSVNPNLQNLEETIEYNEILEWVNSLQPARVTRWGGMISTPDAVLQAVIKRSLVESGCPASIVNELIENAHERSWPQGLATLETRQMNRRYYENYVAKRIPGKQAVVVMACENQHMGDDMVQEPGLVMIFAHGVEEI

RNF141 [2] = biological target: T2, RNF141 (Homo sapiens, UniProt Q8WVD5, C82S); settings: covalent (S-nitrosylation of cysteine); 100 μM GSNO
T2 sequence (Q8WVD5 1-230 C82S): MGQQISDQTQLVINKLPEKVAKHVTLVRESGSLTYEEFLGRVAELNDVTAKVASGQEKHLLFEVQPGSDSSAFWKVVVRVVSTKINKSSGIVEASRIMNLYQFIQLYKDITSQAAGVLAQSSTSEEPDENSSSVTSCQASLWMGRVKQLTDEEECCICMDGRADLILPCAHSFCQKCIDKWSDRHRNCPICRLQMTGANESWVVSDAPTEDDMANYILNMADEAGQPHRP

RNF41 [3] = biological target: T3, RNF41 (Homo sapiens, UniProt Q9H4P4, C238S); settings: covalent (S-nitrosylation of cysteine); 100 μM GSNO
T3 sequence (Q9H4P4 1-317 C238S): T1 sequence (Q9H4P4 1-317 C134S) with S134C, C238S

RNF141 [4] = biological target: T4, RNF141 (Homo sapiens, UniProt Q8WVD5); settings: covalent (S-nitrosylation of cysteine); 100 μM GSNO
T4 sequence (Q8WVD5 1-230): T2 sequence (Q8WVD5 1-230 C82S) with S82C

RNF11 [5] = biological target: T5, RNF11 (Homo sapiens, UniProt Q9Y3C5); settings: covalent (S-nitrosylation, Cys4); 100 μM GSNO, 1 h; GSH control
T5 sequence (Q9Y3C5 1-154): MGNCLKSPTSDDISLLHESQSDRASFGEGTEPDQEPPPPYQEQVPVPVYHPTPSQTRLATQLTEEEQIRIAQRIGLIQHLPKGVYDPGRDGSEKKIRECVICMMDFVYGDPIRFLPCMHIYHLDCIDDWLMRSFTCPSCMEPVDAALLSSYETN

RNF41 [6] = biological target: T6, RNF41 (Homo sapiens, UniProt Q9H4P4, C106S); settings: covalent (S-nitrosylation of cysteine); 100 μM GSNO
T6 sequence (Q9H4P4 1-317 C106S): T1 sequence (Q9H4P4 1-317 C134S) with C106S, S134C

RNF11 [7] = biological target: T7, RNF11 (Homo sapiens, UniProt Q9Y3C5, C4S); settings: covalent (S-nitrosylation of cysteine); 100 μM GSNO
T7 sequence (Q9Y3C5 1-154 C4S): T5 sequence (Q9Y3C5 1-154) with C4S

biotin-switch assay, anti-GST western blot (RNF11 [5]): Cys4 is S-nitrosylated in RNF11
Structure (SMILES): N[C@@H](CCC(=O)N[C@@H](CSN=O)C(=O)NCC(=O)O)C(=O)O [GSNO]
S-nitrosylation (BSM) (RNF41 [1]): C134S and C238S mutants have minimal effect on the S-nitrosylation of RNF41 | S-nitrosylation (BSM) (RNF141 [2]): The C82S and C175S RNF141 proteins both show reduced S-nitrosylation compared with WT RNF141 | S-nitrosylation (BSM) (RNF41 [3]): C134S and C238S mutants have minimal effect on the S-nitrosylation of RNF41 | S-nitrosylation (BSM) (RNF141 [4]): The C82S and C175S RNF141 proteins both show reduced S-nitrosylation compared with WT RNF141 | S-nitrosylation (BSM) (RNF41 [6]): The C106S RNF41 protein S-nitrosylation signal is dramatically reduced compared with WT RNF41 | S-nitrosylation (BSM) (RNF11 [7]): The C4S RNF11 protein is not S-nitrosylated
